This is an account of results in US5118804A, “Process for preparing alkyl-1-thioglycosides and alkyl-glycosides, anomer mixtures thereof” (Beghin-Say, SA, priority 1989, dated 1992).

Data set [1] is described as follows: Critical micelle concentration (CMC), Tsuchiya and Saito method. Format: physicochemical. To be noted: α,β anomer mixtures. An excerpt:
The critical micelle concentrations as measured according to the Tsuchiya and Saito method, J. Biochem., 96 (1984), 1593, are set forth in Table 1 for various fatty acid chain alkyl-1-thio-α,β-glycosides prepared according to the present invention.

Another data set relates to cytochrome P-45017α. As to the kind of experiment: Extraction of cytochrome P-45017α from bovine suprarenal cortex microsomes, and inactivation of the protein. Further details: unit not given here. The settings on record: 30 mins. at 4° C, proteins 4 mg/ml, detergent 15 mg/ml. An excerpt:
(§1) These CMC values allow the glycosides to be used as detergents in membrane protein extraction. For example, but without implying any limitation with regard to other uses, several alkyl-1-thio-α,β-glycosides prepared in the manner of the invention were used to extract membrane proteins from the bovine suprarenal cortex. The suprarenal cortex cells contain enzyme systems which cause steroidogenesis. These are membrane enzymes in the mitochondrions (cytochromes P-45011β and P-450scc) and in the microsomes (cytochrome P-45017α). In conventionally used methods, they are optimally extracted in the presence of sodium cholate. However, the ionic nature of the sodium cholate detergent results in a greater denaturation rate of the enzymatic proteins as the contact time between the proteins and the sodium cholate is prolonged. Accordingly, and in particular, the sodium cholate detergent presents difficulties when used to reconstitute the lipid environment of these proteins.
The mitochondrions of the bovine suprarenal cortex are prepared in the manner of M. Satre & P. V. Vignais (Biochemistry, 13 (1974) 2201). The membrane proteins are extracted by incubation in a suitable buffer containing 50 mM potassium phosphate, pH=7.4, 1 mM dithiothreitol, 1 mM EDTA, and 10 μM desoxycorticosterone. The respective concentrations of proteins and detergents are 20 and 15 mg/ml. Following incubation, the medium is centrifuged (100,000 g, 45 mins.) and the cytochromes P-450 are metered into the supernatant by recording the differential spectrum for the reduced form Fe^2+ and the complex Fe^2+ CO. Denaturation is estimated by the absorption difference measured at 450 nm (native form) and 420 nm (denatured form).
The extraction of cytochrome P-45017α involved obtaining the bovine suprarenal cortex microsomes in the form of a button after 45 mins. centrifugation at 100,000 g of the post-mitochondrial supernatant. The membrane proteins are extracted as indicated above in reference to Table 2 for 30 mins. at 4° C. The respective concentrations of the proteins and detergents are 4 and 15 mg/ml. Following centrifugation, the activity of cytochrome P-45017α is measured in the supernatant by checking the transformation of (^3 H)-pregnenolone into (^3 H)-17α-hydroxy-pregnenolone.

The test system of data set [2] is cytochromes P-45011β and P-450scc. Put plainly: Extraction of cytochromes P-45011β and P-450scc from mitochondrions of the bovine suprarenal cortex, and inactivation of the proteins. The settings on record: proteins 20 mg/ml, detergent 15 mg/ml; for Extraction rate [after 1 h] / Inactivation rate [after 1 h]: pH 7.4, after 1 h; for Extraction rate [after 2 h] / Inactivation rate [after 2 h]: pH 7.4, after 2 h.
Text: as §1, with “For” for “These CMC values allow the glycosides to be used as detergents in membrane protein extraction. For”, “These are membrane enzymes in the mitochondrions (cytochromes P-45011β and P-450scc) and in the microsomes (cytochrome P-45017α).” left out
The membrane proteins are extracted by incubation in a suitable buffer containing 50 mM potassium phosphate, pH=7.4, 1 mM dithiothreitol, 1 mM EDTA, and 10 μM desoxycorticosterone. The respective concentrations of proteins and detergents are 20 and 15 mg/ml. Following incubation, the medium is centrifuged (100,000 g, 45 mins.) and the cytochromes P-450 are metered into the supernatant by recording the differential spectrum for the reduced form Fe^2+ and the complex Fe^2+ CO. Denaturation is estimated by the absorption difference measured at 450 nm (native form) and 420 nm (denatured form).

The conditions of data set [3]: Chem. Pharm. Bull., 33 (1985), 503-8; cited from earlier work.

Turning to `CCCCCCCSC1O[C@H](CO)[C@@H](O)[C@H](O)[C@H]1O` (stereo partly drawn) [1-heptyl-1-thio-α,β-D-glucopyranoside], in data set [1], the “Critical micelle concentration (CMC)” value was 4.1 mM. In addition, in the data set on cytochrome P-45017α, the Extraction rate is 85 and the Inactivation rate was 0. In data set [2], this molecule displayed an Extraction rate [after 1 h] of 0%, an Inactivation rate [after 1 h] of 48%, an Extraction rate [after 2 h] of 0% and an Inactivation rate [after 2 h] of 47%.

For `CCCCCCCSC1O[C@H](CO)[C@@H](O[C@@H]2O[C@H](CO)[C@H](O)[C@H](O)[C@H]2O)[C@H](O)[C@H]1O` (stereo partly drawn) [1-heptyl-1-thio-α,β-lactoside], in the data set with cytochrome P-45017α, the Extraction rate worked out at 57 and the Inactivation rate is on record as 0. Besides, in data set [2], the Extraction rate [after 1 h] was 0%, the Inactivation rate [after 1 h] is 30%, the Extraction rate [after 2 h] is 0% and the Inactivation rate [after 2 h] is 50%.

Regarding `CCCCCCCCSC1O[C@H](CO)[C@@H](O)[C@H](O)[C@H]1O` (stereo partly drawn) [1-octyl-1-thio-α,β- -- D-glucopyranoside, 1-octyl-1-thio-α,β-D-glucopyranoside], in data set [1], the “Critical micelle concentration (CMC)” value is on record as 3.0 mM. In addition, in the data set on cytochrome P-45017α, the Extraction rate was 93 and the Inactivation rate is 0. In data set [2], this molecule displayed an Extraction rate [after 1 h] of 43%, an Inactivation rate [after 1 h] of 60%, an Extraction rate [after 2 h] of 49% and an Inactivation rate [after 2 h] of 72%.

On to `CCCCCCCCSC1O[C@H](CO)[C@@H](O[C@@H]2O[C@H](CO)[C@@H](O)[C@H](O)[C@H]2O)[C@H](O)[C@H]1O` (stereo partly drawn) [1-octyl-1-thio-α,β-cellobioside], for which the “Critical micelle concentration (CMC)” value in data set [1] is recorded as 0.2 mM. In the data set with cytochrome P-45017α, the Extraction rate is 72 and the Inactivation rate was determined as 0. In data set [2], the Extraction rate [after 1 h] was determined as 0%, the Inactivation rate [after 1 h] stood at 55%, the Extraction rate [after 2 h] was determined as 0% and the Inactivation rate [after 2 h] stood at 20%.

On to `CCCCCCCCSC1O[C@H](CO)[C@@H](O[C@@H]2O[C@H](CO)[C@H](O)[C@H](O)[C@H]2O)[C@H](O)[C@H]1O` (stereo partly drawn) [1-octyl-1-thio-α,β-lactoside], for which the “Critical micelle concentration (CMC)” value in data set [1] was determined as 0.2 mM. In the data set with cytochrome P-45017α, this molecule gave an Extraction rate of 65 and an Inactivation rate of 57. For the same molecule, in data set [2], the Extraction rate [after 1 h] is 0%, the Inactivation rate [after 1 h] worked out at 55%, the Extraction rate [after 2 h] turned out to be 0% and the Inactivation rate [after 2 h] stood at 62%.

With `CCCCCCCCSC1O[C@H](CO)[C@@H](O[C@H]2O[C@H](CO)[C@@H](O)[C@H](O)[C@H]2O)[C@H](O)[C@H]1O` (stereo partly drawn) [1-octyl-1-thio-α,β-maltoside], the “Critical micelle concentration (CMC)” value in data set [1] came out at 0.2 mM. In the data set on cytochrome P-45017α, this molecule displayed an Extraction rate of 58 and an Inactivation rate of 0. In data set [2], this molecule showed an Extraction rate [after 1 h] of 0%, an Inactivation rate [after 1 h] of 48%, an Extraction rate [after 2 h] of 21% and an Inactivation rate [after 2 h] of 94%.

As to `CCCCCCCCS[C@@H]1O[C@H](CO)[C@@H](O)[C@H](O)[C@H]1O` [1-octyl-1-thio-β- -- D-glucopyranoside, 1-octyl-1-thio-β-D-glucopyranoside, reference compound], in the data set on cytochrome P-45017α, the Extraction rate was 31 and the Inactivation rate is 0. The “CMC of the prior art mentioned in the literature” value in data set [3] is on record as 9.0 mM. In data set [2], this molecule registered an Extraction rate [after 1 h] of 0%, an Inactivation rate [after 1 h] of 18%, an Extraction rate [after 2 h] of 48% and an Inactivation rate [after 2 h] of 91%.

In the data set with cytochrome P-45017α, `CCCCCCCCO[C@@H]1O[C@H](CO)[C@@H](O)[C@H](O)[C@H]1O` [1-octyl-β-D-glucopyranoside, reference compound] came in with an Extraction rate of 89 and an Inactivation rate of 20. Moreover, in data set [2], the Extraction rate [after 1 h] amounted to 0%, the Inactivation rate [after 1 h] was determined as 100%, the Extraction rate [after 2 h] was 0% and the Inactivation rate [after 2 h] came to 100%.

In data set [2], `C[C@H](CCC(=O)O)[C@H]1CC[C@H]2[C@@H]3[C@H](O)C[C@@H]4C[C@H](O)CC[C@]4(C)[C@H]3C[C@H](O)[C@]12C` [sodium cholate, reference compound] gave an Extraction rate [after 1 h] of 0% and an Inactivation rate [after 1 h] of 94%.
